US20250074920A1, “MACROCYCLIC COMPOUNDS AND USE AS KINASE INHIBITORS” (BLOSSOMHILL THERAPEUTICS, INC., priority 2022, published 2025)

Key:
Experiment in all cases: KINOMEscan kinase binding assay
[1] = test system: ABL1(E255K)-phosphorylated; details: at 1 μM
Experimental: (§1) Kinase binding assays were performed at Eurofins/DiscoveRx using the general KINOMEscan Protocol (Fabian, M. A. et al., “A small molecule-kinase interaction map for clinical kinase inhibitors,” Nat. Biotechnol. 2005, 23(3):329-36). For most assays, kinase-tagged T7 phage strains were prepared in an E. coli host derived from the BL21 strain. E. coli were grown to log-phase and infected with T7 phage and incubated with shaking at 32° C. until lysis. The lysates were centrifuged and filtered to remove cell debris. The remaining kinases were produced in HEK-293 cells and subsequently tagged with DNA for qPCR detection. Streptavidin-coated magnetic beads were treated with biotinylated small molecule ligands for 30 minutes at room temperature to generate affinity resins for kinase assays. The liganded beads were blocked with excess biotin and washed with blocking buffer (SeaBlock (Pierce), 1% BSA, 0.05% Tween 20, 1 mM DTT) to remove unbound ligand and to reduce nonspecific binding. Binding reactions were assembled by combining kinases, liganded affinity beads, and test compounds in 1× binding buffer (20% SeaBlock, 0.17×PBS, 0.05% Tween 20, 6 mM DTT). All reactions were performed in polystyrene 96-well plates in a final volume of 0.135 mL. The assay plates were incubated at room temperature with shaking for 1 hour and the affinity beads were washed with wash buffer (1×PBS, 0.05% Tween 20). The beads were then re-suspended in elution buffer (1×PBS, 0.05% Tween 20, 0.5 μM non-biotinylated affinity ligand) and incubated at room temperature with shaking for 30 minutes. The kinase concentration in the eluates was measured by qPCR. Results for compounds tested in this assay at a given concentration are reported as “% Ctrl”, where lower numbers indicate stronger binding in the matrix. % Ctrl was calculated as (test compound signal-positive control signal)/(negative control signal-positive control signal)×100. Dissociation constants (Kds) for test compound-kinase interactions were calculated by measuring the amount of kinase captured on the solid support as a function of the test compound concentration.

[2] = test system: ABL1(F317I)-nonphosphorylated; details: at 1 μM
Experimental: as §1

[3] = test system: ABL1(M351T)-phosphorylated; details: at 1 μM
Experimental: as §1

[4] = test system: ABL1(T315I)-nonphosphorylated; details: at 1 μM
Experimental: as §1

[5] = test system: ABL1(Y253F)-phosphorylated; details: at 1 μM
Experimental: as §1

[6] = test system: ABL2; details: at 1 μM
Experimental: as §1

[7] = test system: ALK(L1196M); details: at 1 μM
Experimental: as §1

[8] = test system: BMX; details: at 1 μM
Experimental: as §1

[9] = test system: BRK; details: at 1 μM
Experimental: as §1

[10] = test system: CSF1R; details: at 1 μM
Experimental: as §1

[11] = test system: CSK; details: at 1 μM
Experimental: as §1

[12] = test system: EGFR(G719C); details: at 1 μM
Experimental: as §1

[13] = test system: EGFR(L747-S752del, P753S); details: at 1 μM
Experimental: as §1

[14] = test system: EGFR(S752-1759del); details: at 1 μM
Experimental: as §1

[15] = test system: EGFR; details: at 1 μM
Experimental: as §1

[16] = test system: ERBB4; details: at 1 μM
Experimental: as §1

[17] = test system: FER; details: at 1 μM
Experimental: as §1

[18] = test system: FES; details: at 1 μM
Experimental: as §1

[19] = test system: FGFR3(G697C); details: at 1 μM
Experimental: as §1

[20] = test system: FGFR3; details: at 1 μM
Experimental: as §1

[21] = test system: HCK; details: at 1 μM
Experimental: as §1

[22] = test system: IGF1R; details: at 1 μM
Experimental: as §1

[23] = test system: INSRR; details: at 1 μM
Experimental: as §1

[24] = test system: JAK2(JH1domain-catalytic); details: for % Ctrl: JAK2(JH1domain-catalytic), at 1 μM; for Kd: read-out: JAK2(JH1 domain-catalytic) Kd
Experimental: as §1

[25] = test system: JAK3(JH1domain-catalytic); details: for % Ctrl: JAK3(JH1domain-catalytic), at 1 μM; for Kd: read-out: JAK3(JH1 domain-catalytic) Kd
Experimental: as §1

[26] = test system: KIT(A829P); details: at 1 μM
Experimental: as §1

[27] = test system: KIT(D816H); details: at 1 μM
Experimental: as §1

[28] = test system: KIT(D816V); details: at 1 μM
Experimental: as §1

[29] = test system: KIT; details: at 1 μM
Experimental: as §1

[30] = test system: MET; details: at 1 μM
Experimental: as §1

[31] = test system: PYK2; details: at 1 μM
Experimental: as §1

[32] = test system: RET(M918T); details: at 1 μM
Experimental: as §1

[33] = test system: TIE1; details: at 1 μM
Experimental: as §1

[34] = test system: TIE2; details: at 1 μM
Experimental: as §1

[35] = test system: TNK1; details: at 1 μM
Experimental: as §1

[36] = test system: TNK2; details: at 1 μM
Experimental: as §1

[37] = test system: TYK2(JH1domain-catalytic); details: for % Ctrl: TYK2(JH1domain-catalytic), at 1 μM; for Kd: read-out: TYK2(JH1 domain-catalytic) Kd
Experimental: as §1

[38] = test system: TYK2(JH2domain-pseudokinase); details: for % Ctrl: TYK2(JH2domain-pseudokinase), at 1 μM; for Kd: read-out: TYK2(JH2 domain-pseudokinase) Kd
Experimental: as §1

Q: Which results are given for `Cc1cc2c([nH]1)/C=C1\C(=O)Nc3c(Cl)cc(cc31)-c1cn(C)nc1COC[C@@H](C)N(C)C2=O` [Cpd. 5, [3a(4)Z,10R]-20-chloro-6,9,10,15-tetramethyl-10,11,13,15-tetrahydro-2H-1,17-(ethanediylidene)pyrazolo[4,3-m]dipyrrolo[3,2-f:3′,4′-i][1,4]oxazacyclopentadecine-3,8(5H,9H)-dione]?
A: % Ctrl [1]: 79%; % Ctrl [2]: 90%; % Ctrl [3]: 94%; % Ctrl [4]: 100%; % Ctrl [5]: 73%; % Ctrl [6]: 96%; % Ctrl [7]: 86%; % Ctrl [8]: 100%; % Ctrl [9]: 79%; % Ctrl [10]: 96%; % Ctrl [11]: 96%; % Ctrl [12]: 100%; % Ctrl [13]: 86%; % Ctrl [14]: 100%; % Ctrl [15]: 96%; % Ctrl [16]: 97%; % Ctrl [17]: 68%; % Ctrl [18]: 89%; % Ctrl [19]: 93%; % Ctrl [20]: 90%; % Ctrl [21]: 100%; % Ctrl [22]: 98%; % Ctrl [23]: 99%; % Ctrl [24]: 89%; Kd [24]: > 10000 nM; % Ctrl [25]: 79%; Kd [25]: > 10000 nM; % Ctrl [26]: 84%; % Ctrl [27]: 77%; % Ctrl [28]: 100%; % Ctrl [29]: 98%; % Ctrl [30]: 96%; % Ctrl [31]: 83%; % Ctrl [32]: 87%; % Ctrl [33]: 91%; % Ctrl [34]: 92%; % Ctrl [35]: 91%; % Ctrl [36]: 87%; % Ctrl [37]: 69%; Kd [37]: > 10000 nM; % Ctrl [38]: 0%; Kd [38]: 0.18 nM

Q: For `Cc1cc2c([nH]1)/C=C1\C(=O)Nc3ccc(cc31)-c1c(nn(C)c1C)COCCN(C)C2=O` [Cpd. 2, [3a(4)Z]-6,9,15,16-tetramethyl-10,11,13,15-tetrahydro-2H-1,17-(ethanediylidene)pyrazolo[4,3-m]dipyrrolo[3,2-f:3′,4′-i][1,4]oxazacyclopentadecine-3,8(5H,9H)-dione], which “% Ctrl” value [1] is on record?
A: The value was 45%.

Q: And the “% Ctrl” value [2]?
A: The value was 100%.

Q: What about the “% Ctrl” value [3] of the same compound?
A: The value was 57%.

Q: And the “% Ctrl” value [4]?
A: Its value is 17%.

Q: What about the “% Ctrl” value [5] of the same compound?
A: The value was 60%.

Q: What about the “% Ctrl” value [6] of the same compound?
A: The value was 96%.

Q: What about the “% Ctrl” value [7] of the same compound?
A: Its value is 94%.

Q: And the “% Ctrl” value [8]?
A: The value was 95%.

Q: And the “% Ctrl” value [9]?
A: The value was 100%.

Q: What about the “% Ctrl” value [10] of the same compound?
A: Its value is 82%.

Q: What about the “% Ctrl” value [11] of the same compound?
A: Its value is 100%.

Q: And the “% Ctrl” value [12]?
A: The value was 80%.

Q: And the “% Ctrl” value [13]?
A: The value was 100%.

Q: And the “% Ctrl” value [14]?
A: Its value is 80%.

Q: What about the “% Ctrl” value [15] of the same compound?
A: Its value is 66%.

Q: And the “% Ctrl” value [16]?
A: Its value is 67%.

Q: What about the “% Ctrl” value [17] of the same compound?
A: Its value is 100%.

Q: What about the “% Ctrl” value [18] of the same compound?
A: The value was 100%.

Q: What about the “% Ctrl” value [19] of the same compound?
A: Its value is 93%.

Q: And the “% Ctrl” value [20]?
A: The value was 88%.

Q: What about the “% Ctrl” value [21] of the same compound?
A: The value was 100%.

Q: And the “% Ctrl” value [22]?
A: The value was 88%.

Q: What about the “% Ctrl” value [23] of the same compound?
A: Its value is 100%.

Q: And the “% Ctrl” value [24]?
A: The value was 91%.

Q: And the Kd [24]?
A: Its Kd is 2300 nM.

Q: What about the “% Ctrl” value [25] of the same compound?
A: Its value is 49%.

Q: What about the Kd [25] of the same compound?
A: Its Kd is 510 nM.

Q: And the “% Ctrl” value [26]?
A: The value was 92%.

Q: And the “% Ctrl” value [27]?
A: The value was 98%.

Q: And the “% Ctrl” value [28]?
A: Its value is 60%.

Q: What about the “% Ctrl” value [29] of the same compound?
A: Its value is 100%.

Q: And the “% Ctrl” value [30]?
A: Its value is 95%.

Q: What about the “% Ctrl” value [31] of the same compound?
A: The value was 100%.

Q: And the “% Ctrl” value [32]?
A: The value was 92%.

Q: What about the “% Ctrl” value [33] of the same compound?
A: The value was 61%.

Q: What about the “% Ctrl” value [34] of the same compound?
A: Its value is 63%.

Q: And the “% Ctrl” value [35]?
A: The value was 92%.

Q: What about the “% Ctrl” value [36] of the same compound?
A: The value was 89%.

Q: What about the “% Ctrl” value [37] of the same compound?
A: The value was 100%.

Q: And the Kd [37]?
A: Its Kd is > 10000 nM.

Q: And the “% Ctrl” value [38]?
A: The value was 0.6%.

Q: What about the Kd [38] of the same compound?
A: Its Kd is 1.2 nM.

Q: What does the source list for `Cc1cc2c([nH]1)/C=C1\C(=O)Nc3ccc(cc31)-c1c(nn(C)c1C)OCCCN(C)C2=O` [Cpd. 1, [3a(4)Z]-6,9,15,16-tetramethyl-9,10,11,12-tetrahydro-15H-1,17-(ethanediylidene)pyrazolo[4,3-n]dipyrrolo[3,2-g:3′,4′-j][1,5]oxazacyclopentadecine-3,8(2H,5H)-dione]?
A: % Ctrl [1]: 92%; % Ctrl [2]: 91%; % Ctrl [3]: 100%; % Ctrl [4]: 83%; % Ctrl [5]: 92%; % Ctrl [6]: 87%; % Ctrl [7]: 89%; % Ctrl [8]: 67%; % Ctrl [9]: 92%; % Ctrl [10]: 98%; % Ctrl [11]: 97%; % Ctrl [12]: 81%; % Ctrl [13]: 100%; % Ctrl [14]: 88%; % Ctrl [15]: 100%; % Ctrl [16]: 95%; % Ctrl [17]: 97%; % Ctrl [18]: 92%; % Ctrl [19]: 100%; % Ctrl [20]: 96%; % Ctrl [21]: 93%; % Ctrl [22]: 100%; % Ctrl [23]: 94%; % Ctrl [24]: 98%; Kd [24]: > 10000 nM; % Ctrl [25]: 81%; Kd [25]: > 10000 nM; % Ctrl [26]: 93%; % Ctrl [27]: 74%; % Ctrl [28]: 97%; % Ctrl [29]: 91%; % Ctrl [30]: 84%; % Ctrl [31]: 100%; % Ctrl [32]: 84%; % Ctrl [33]: 100%; % Ctrl [34]: 95%; % Ctrl [35]: 100%; % Ctrl [36]: 100%; % Ctrl [37]: 31%; Kd [37]: > 10000 nM; % Ctrl [38]: 1.5%; Kd [38]: 220 nM
